Results reported in patent US9120749B2, “Quinoline derivatives and MELK inhibitors containing the same” (ONCOTHERAPY SCIENCE, INC., priority 2010, dated 2015).
Structures can show the parent of a compound that is named as a salt. Where two headings read alike, the source gives them in different places.

Assays:
DU4475 cells = test: Cell-based assay: anti-proliferative activity, Cell Counting Kit-8, 72 hours (DU4475)
MELK = MELK (Homo sapiens, UniProt Q14680); test: Kinase assay: MELK activity, phosphorylation of FITC-labeled histone H3 peptide measured by IMAP fluorescence polarization; format: biochemical; conditions: read-out: IC50 (μM) (kinase assay)
Sequence of MELK (Q14680 whole entry, looked up): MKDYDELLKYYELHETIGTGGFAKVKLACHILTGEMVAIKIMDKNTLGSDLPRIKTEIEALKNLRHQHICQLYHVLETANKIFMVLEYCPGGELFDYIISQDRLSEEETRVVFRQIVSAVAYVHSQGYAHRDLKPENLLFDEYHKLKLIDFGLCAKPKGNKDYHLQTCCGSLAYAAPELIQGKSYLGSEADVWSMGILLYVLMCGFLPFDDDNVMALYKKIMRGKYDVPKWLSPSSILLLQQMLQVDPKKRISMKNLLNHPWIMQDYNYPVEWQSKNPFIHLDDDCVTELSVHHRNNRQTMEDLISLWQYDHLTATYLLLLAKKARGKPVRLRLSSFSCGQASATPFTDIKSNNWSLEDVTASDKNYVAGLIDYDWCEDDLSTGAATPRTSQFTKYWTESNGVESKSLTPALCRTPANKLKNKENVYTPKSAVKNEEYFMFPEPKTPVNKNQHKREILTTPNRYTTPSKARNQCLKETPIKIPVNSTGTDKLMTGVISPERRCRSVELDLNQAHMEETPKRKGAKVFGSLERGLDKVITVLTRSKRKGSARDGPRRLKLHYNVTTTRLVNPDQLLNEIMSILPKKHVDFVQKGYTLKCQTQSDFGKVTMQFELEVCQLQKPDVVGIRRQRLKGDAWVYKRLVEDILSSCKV
Method in brief: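 Compounds, serially diluted from 12.5 mM DMSO stocks to 1% final DMSO, were tested with FITC-labeled histone H3 peptide as substrate. The reaction was stopped with progressive binding solution. Fluorescence polarization was read after 0.5 hour at room temperature.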

HT-1197 cells = test: Cell-based assay: anti-proliferative activity, Cell Counting Kit-8, 72 hours (HT-1197, negative control without MELK expression); conditions: HT1197 cells (negative control), 72 hours
Method in brief: (§1)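 Anti-MELK western blot on crude lysates → MELK status per line. Cells plated 96-well, compound exposure, CCK-8 readout at 72 h; IC50 calculated.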

T47D cells = test: Cell-based assay: anti-proliferative activity, Cell Counting Kit-8, 72 hours (T47D)
Method in brief: as §1

A549 cells = test: Cell-based assay: anti-proliferative activity, Cell Counting Kit-8, 72 hours (A549); conditions: 72 hours
Method in brief: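 Cell Counting Kit-8 read-out of A549 growth after 72 hours of inhibitor exposure, cells plated in 96-well format. Values reported as IC50.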

SMILES	IC50 (DU4475 cells; Homo sapiens, DU-4475, 72 h)	IC50 (MELK)	IC50 (HT-1197 cells; Homo sapiens, HT1197, 72 h)	IC50 (T47D cells; Homo sapiens, T47D, 72 h)	IC50 (A549 cells; Homo sapiens, A549, 72 h)	IC50 (DU4475 cells; dihydrochloride)	IC50 (MELK; dihydrochloride)	IC50 (HT-1197 cells; dihydrochloride)	IC50 (T47D cells; 72 hours, dihydrochloride)	IC50 (A549 cells; dihydrochloride)
CN[C@H]1CC[C@H](Nc2c(C(=O)C3CC3)cnc3ccc(-c4cc(F)c(O)c(Cl)c4)cc23)CC1 [Example 523, {6-(3-Chloro-5-fluoro-4-hydroxyphenyl)-4-[trans-4-(methylamino)cyclohexylamino]quinolin-3-yl}(cyclopropyl)methanone]	0.024 µM	0.0024 µM	1.3 µM	0.033 µM	0.19 µM					
CN(CC#N)C[C@H]1CC[C@@H](Nc2c(C(=O)C3CC3)cnc3ccc(-c4cc(F)c(O)c(Cl)c4)cc23)CC1 [Example 524, 2-((((1R,4R)-4-(6-(3-Chloro-5-fluoro-4-hydroxyphenyl)-3-(cyclopropanecarbonyl)quinolin-4-ylamino)cyclohexyl)methyl)(methyl)amino)acetonitrile]	0.1 µM	0.01 µM	1.7 µM	0.2 µM	0.39 µM					
O=C(c1cnc2ccc(-c3cc(F)c(O)c(Cl)c3)cc2c1Nc1ccc(N2CCNCC2)cn1)C1CC1 [Example 525, (6-(3-chloro-5-fluoro-4-hydroxyphenyl)-4-(5-(piperazin-1-yl)pyridin-2-ylamino)quinolin-3-yl)(cyclopropyl)methanone]	0.46 µM	0.0048 µM	11 µM	0.48 µM	1.7 µM					
CN(C)C[C@H]1CC[C@@H](Nc2c(C(=O)C3CC3)cnc3ccc(-c4cc(Cl)c(O)c(Cl)c4)cc23)CC1 [Example 526, cyclopropyl(6-(3,5-dichloro-4-hydroxyphenyl)-4-((1s,4s)-4-((dimethylamino)methyl)cyclohexylamino)quinolin-3-yl)methanone]	0.15 µM	0.0021 µM	1.2 µM	0.29 µM	0.25 µM					
CC(=O)c1cnc2ccc(-c3cc(F)c(O)c(Cl)c3)cc2c1N[C@H]1CC[C@H](N)CC1 [Example 527, 1-(4-((trans-4-aminocyclohexyl)amino)-6-(3-chloro-5-fluoro-4-hydroxyphenyl)quinolin-3-yl)ethanone]	0.02 µM	0.015 µM	10 µM	0.034 µM	0.42 µM					
COc1cc(-c2ccc3ncc(C(=O)C4CC4)c(Nc4ccc(N5CCNCC5)cn4)c3c2)cc(Cl)c1O [Example 528, (6-(3-chloro-4-hydroxy-5-methoxyphenyl)-4-(5-(piperazin-1-yl)pyridin-2-ylamino)quinolin-3-yl)(cyclopropyl)methanone hydrochloride]	1.7 µM	0.0044 µM	4.2 µM	1.8 µM	1.3 µM					
CCCC(=O)c1cnc2ccc(-c3cc(Cl)c(O)c(OC)c3)cc2c1N[C@H]1CC[C@H](N)CC1 [Example 529, 1-(4-((trans-4-aminocyclohexyl)amino)-6-(3-chloro-4-hydroxy-5-methoxyphenyl)quinolin-3-yl)butan-1-one]	0.076 µM	0.0038 µM	1.5 µM	0.081 µM	0.15 µM					
CCCC(=O)c1cnc2ccc(-c3cc(Cl)c(O)c(Cl)c3)cc2c1Nc1ccc(CN(C)C)cc1 [Example 530, 1-(6-(3,5-dichloro-4-hydroxyphenyl)-4-((4-((dimethylamino)methyl)phenyl)amino)quinolin-3-yl)butan-1-one]	0.086 µM	0.0045 µM	1.2 µM	0.07 µM	0.15 µM					
CCCC(=O)c1cnc2ccc(-c3cc(Cl)c(O)c(Cl)c3)cc2c1Nc1ccc(CN(C)C)cc1 [Example 531, 1-(6-(3,5-dichloro-4-hydroxyphenyl)-4-((4-((dimethylamino)methyl)phenyl)amino)quinolin-3-yl)butan-1-one dihydrochloride]						0.072 µM	0.0052 µM	1.3 µM	0.11 µM	0.18 µM
CCCC(=O)c1cnc2ccc(-c3cc(F)c(O)c(Cl)c3)cc2c1N[C@H]1CC[C@H](N)CC1 [Example 532, 1-(4-((trans-4-aminocyclohexyl)amino)-6-(3-chloro-5-fluoro-4-hydroxyphenyl)quinolin-3-yl)butan-1-one]	0.03 µM	0.017 µM	2.9 µM	0.046 µM	0.49 µM					
COc1cc(-c2ccc3ncc(C(=O)C4CC4)c(N4CCN(C)CC4)c3c2)cc(Cl)c1O [Example 533, (6-(3-chloro-4-hydroxy-5-methoxyphenyl)-4-(4-methylpiperazin-1-yl)quinolin-3-yl)(cyclopropyl)methanone]	0.4 µM	0.0088 µM	2.6 µM	0.48 µM	0.26 µM					
CN1CCN(c2c(C(=O)C3CC3)cnc3ccc(-c4cc(F)c(O)c(Cl)c4)cc23)CC1 [Example 534, (6-(3-chloro-5-fluoro-4-hydroxyphenyl)-4-(4-methylpiperazin-1-yl)quinolin-3-yl)(cyclopropyl)methanone]	0.96 µM	0.025 µM	2.8 µM	1.1 µM	1.4 µM					
CCCC(=O)c1cnc2ccc(-c3cc(Cl)c(O)c(Cl)c3)cc2c1N[C@H]1CC[C@H](N)CC1 [Example 535, 1-(4-((trans-4-aminocyclohexyl)amino)-6-(3,5-dichloro-4-hydroxyphenyl)quinolin-3-yl)butan-1-one]	0.025 µM	0.0024 µM	3.3 µM	0.077 µM	0.24 µM					
CCCC(=O)c1cnc2ccc(-c3cc(F)c(O)c(Cl)c3)cc2c1Nc1ccc(CN(C)C)cc1 [Example 537, 1-(6-(3-chloro-5-fluoro-4-hydroxyphenyl)-4-((4-((dimethylamino)methyl)phenyl)amino)quinolin-3-yl)butan-1-one]	0.098 µM	0.016 µM	0.94 µM	0.11 µM	0.15 µM					
CCCC(=O)c1cnc2ccc(-c3cc(Cl)c(O)c(OC)c3)cc2c1Nc1ccc(CN(C)C)cc1 [Example 538, 1-(6-(3-chloro-4-hydroxy-5-methoxyphenyl)-4-(4-((dimethylamino)methyl)phenylamino)quinolin-3-yl)butan-1-one]	0.27 µM	0.02 µM	3.1 µM	0.28 µM	0.45 µM					
CCCC(=O)c1cnc2ccc(-c3cnc(C#N)nc3)cc2c1Nc1ccc(CN(C)C)cc1 [Example 539, 5-(3-butyryl-4-(4-((dimethylamino)methyl)phenylamino)quinolin-6-yl)pyrimidine-2-carbonitrile]	1.5 µM	0.0038 µM	1.6 µM	0.37 µM	1.6 µM					
COc1cc(-c2cc3c(Nc4ccc(CN(C)C)cc4)c(C(=O)C4CC4)cnc3cc2F)cc(Cl)c1O [Example 540, (6-(3-chloro-4-hydroxy-5-methoxyphenyl)-4-(4-((dimethylamino)methyl)phenylamino)-7-fluoroquinolin-3-yl)(cyclopropyl)methanone]	0.35 µM	0.064 µM	3.7 µM	0.89 µM	0.25 µM					
CN(C)Cc1ccc(Nc2c(C(=O)C3CC3)cnc3cc(F)c(-c4cc(F)c(O)c(Cl)c4)cc23)cc1 [Example 541, (6-(3-Chloro-5-fluoro-4-hydroxyphenyl)-4-(4-((dimethylamino)methyl)phenylamino)-7-fluoroquinolin-3-yl)(cyclopropyl)methanone]	0.087 µM	0.077 µM	1.1 µM	0.42 µM	0.076 µM					
CN[C@H]1CC[C@H](Nc2c(C(C)=O)cnc3ccc(-c4cc(Cl)c(O)c(OC)c4)cc23)CC1 [Example 542]	0.069 µM	0.0043 µM	1.7 µM	0.078 µM	0.1 µM					
COc1cc(-c2ccc3ncc(C(C)=O)c(Nc4ccc(C(N)=O)cc4)c3c2)cc(Cl)c1O [Example 544, 4-(3-acetyl-6-(3-chloro-4-hydroxy-5-methoxyphenyl)quinolin-4-ylamino)benzamide]	0.2 µM	0.018 µM	2.2 µM	0.17 µM	0.47 µM					
